Source: patent US10385067B2, “Sodium (2R,5S,13aR)-7,9-dioxo-10-((2,4,6-trifluorobenzyl)carbamoyl)-2,3,4,5,7,9,13,13a-octahydro-2,5-methanopyrido[1′,2′:4,5]pyrazino[2,1-b][1,3]oxazepin-8-olate” (Gilead Sciences, Inc., priority 2014, dated 2019)

Columns and labels:
HIV = settings: as discussed in co-pending U.S. Ser. No. 14/133,855 and PCT US2013/076367; cited from earlier work
[1] = Stability on storage under accelerated conditions; assay type: physicochemical; settings: after four weeks of storage under accelerated conditions
Experimental: The stability of sodium (2R,5S,13aR)-7,9-dioxo-10-((2,4,6-trifluorobenzyl)carbamoyl)-2,3,4,5,7,9,13,13a-octahydro-2,5-methanopyrido[1′,2′:4,5]pyrazino[2,1-b][1,3]oxazepin-8-olate Form I was tested. […] In Table 5, AN refers to area normalization and is the relative peak area of the active with respect to other impurities and components contained in the sample. LS refers to labile strength and is the amount of active present relative to the theoretical amount.

stability [1]	SMILES	anti-viral activity (HIV)
	O=C(NCc1c(F)cc(F)cc1F)c1cn2c(c(O)c1=O)C(=O)N1[C@H]3CC[C@H](C3)O[C@@H]1C2 [Formula I, (2R,5S,13aR)-8-hydroxy-7,9-dioxo-N-(2,4,6-trifluorobenzyl)-2,3,4,5,7,9,13,13a-octahydro-2,5-methanopyrido[1′,2′:4,5]pyrazino[2,1-b][1,3]oxazepine-10-carboxamide]	demonstrates anti-viral activity
stable	O=C(NCc1c(F)cc(F)cc1F)c1cn2c(c([O-])c1=O)C(=O)N1[C@H]3CC[C@H](C3)O[C@@H]1C2.[Na+] [Formula II Form I, sodium (2R,5S,13aR)-7,9-dioxo-10-((2,4,6-trifluorobenzyl)carbamoyl)-2,3,4,5,7,9,13,13a-octahydro-2,5-methanopyrido[1′,2′:4,5]pyrazino[2,1-b][1,3]oxazepin-8-olate]	
